Assay results published in patent EP4603105A1, “PHARMACEUTICAL COMPOSITION CONTAINING CYCLIC COMPOUND HAVING SELECTIVE KRAS INHIBITORY EFFECT AGAINST HRAS AND NRAS” (CHUGAI SEIYAKU KABUSHIKI KAISHA, priority 2022, dated 2024).
pIC50, pKd: −log10 of the molar value. Where a SMILES comes first, the peptide text is derived from it. Bridges are numbered along the chain shown (N, C = ends). [ ]: non-standard residue; d: D form. hPhe(3-Cl-4-CF3) = N[C@@H](CCc1ccc(C(F)(F)F)c(Cl)c1)C(=O)O; NPrPhe(4-CF3) = CCCN[C@@H](Cc1ccc(C(F)(F)F)cc1)C(=O)O; NMeGly(cPent) = CN[C@H](C(=O)O)C1CCCC1; NMeD = CN[C@@H](CC(=O)O)C(=O)O; NMeL = CN[C@@H](CC(C)C)C(=O)O; Ac5c = NC1(C(=O)O)CCCC1; Aze = O=C(O)[C@@H]1CCN1; Sar = CNCC(=O)O

Assays:
[1] = molecular target: GDP-bound KRAS wild-type protein (Homo sapiens, UniProt P01116); test: Binding to KRAS by surface plasmon resonance (SPR), dissociation constant KD
In short: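 Recombinant RAS proteins bearing a biotinylated Avi tag and loaded with GDP served as the captured ligand, recaptured fresh every cycle. Binding responses were referenced to an uncoated surface and a buffer-only blank cycle. Dissociation constants were obtained by 1:1 model fitting at 30°C.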

[2] = test system: human lung cancer strain NCI-H441; assay type: cell-based
In short: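 Signal came from […] measured per well once the reagent was added. Beforehand, cells were cultured at 37°C and 5% carbon dioxide on a compound series serially diluted in dimethyl sulfoxide.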

[3] = molecular target: GDP-bound NRAS wild-type protein (Homo sapiens, UniProt P01111); test: Binding to NRAS by surface plasmon resonance (SPR), KD and KD ratio to KRAS
In short: (§1)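 Measured at 30°C: SPR with GDP-loaded, E. coli-expressed biotin-Avi RAS captured (~100–300 RU), ascending 75 s compound injections, HBS pH 7.4 with GDP, MgCl2, 4% DMSO. KD from 1:1 fit.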

HRAS wild-type protein = HRAS wild-type protein (Homo sapiens, UniProt P01112); test: Binding to HRAS by surface plasmon resonance (SPR), KD and KD ratio to KRAS
In short: as §1

[4] = ratio of KD for GDP-bound NRAS wild-type protein to KD for KRAS
[5] = ratio of KD for HRAS wild-type protein to KD for KRAS
[6] = Single Cycle Kinetics, 1:1 binding model
[7] = ratio of the KD value with respect to GDP-bound NRAS wild-type protein to the KD value with respect to KRAS
[8] = ratio of the KD value with respect to HRAS wild-type protein to the KD value with respect to KRAS

GDP-bound KRAS wild-type protein, sequence (P01116 1-188 isoform P01116-2): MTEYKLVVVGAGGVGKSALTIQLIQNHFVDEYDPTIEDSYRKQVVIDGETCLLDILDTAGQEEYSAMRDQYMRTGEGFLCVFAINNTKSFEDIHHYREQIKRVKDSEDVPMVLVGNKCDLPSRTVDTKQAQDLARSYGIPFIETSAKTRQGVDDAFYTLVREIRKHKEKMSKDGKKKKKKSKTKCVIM
HRAS wild-type protein, sequence (P01112 whole entry): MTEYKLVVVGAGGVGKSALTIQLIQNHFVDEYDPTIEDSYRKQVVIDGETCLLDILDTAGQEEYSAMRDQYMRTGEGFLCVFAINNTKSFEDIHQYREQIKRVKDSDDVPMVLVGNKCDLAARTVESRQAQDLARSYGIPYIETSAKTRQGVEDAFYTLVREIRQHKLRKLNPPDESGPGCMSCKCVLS
GDP-bound NRAS wild-type protein, sequence (P01111 whole entry): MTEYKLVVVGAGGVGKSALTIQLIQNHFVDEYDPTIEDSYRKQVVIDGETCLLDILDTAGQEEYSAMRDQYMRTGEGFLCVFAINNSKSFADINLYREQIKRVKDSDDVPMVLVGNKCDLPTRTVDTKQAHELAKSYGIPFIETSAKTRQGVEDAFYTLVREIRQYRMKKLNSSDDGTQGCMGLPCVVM

Structure (SMILES) | pKd ([1]; 1:1 binding model) | pIC50 [2] | NRAS /KRAS [3, 4] | HRAS /KRAS (HRAS wild-type protein; [5]) | pKd ([1]; Single Cycle Kinetics) | pKd [1, 6] | NRAS /KRAS [3, 7] | HRAS /KRAS (HRAS wild-type protein; [8]) | NRAS /KRAS ([3]; ratio of KD value for GDP-bound NRAS wild-type protein to KD value for KRAS (SPR)) | HRAS /KRAS (HRAS wild-type protein; ratio of KD value for HRAS wild-type protein to KD value for KRAS (SPR))
CCO[C@@H]1C[C@H]2C(=O)NC3(CC(C)(C)C3)C(=O)N(C)[C@@H](C3CCCC3)C(=O)N(C)[C@H](C(=O)N(C)CC)CC(=O)N(C)[C@@H]([C@@H](C)OC)C(=O)N[C@@H]([C@@H](C)CC)C(=O)N(C)CC(=O)N(C)[C@H]3C/C=C\CCN(C3=O)[C@@H](Cc3ccc(C)cc3)C(=O)N(C)CC(=O)N[C@@H](CCc3ccc(C(F)(F)F)c(Cl)c3)C(=O)N2C1 [PP3180] | 9.43 | 7.88 | B (a compound having 3 or more and less than 10 is denoted as B) | B (a compound having 3 or more and less than 10 is denoted as B) |  |  |  |  |  | 
CCO[C@@H]1C[C@H]2C(=O)NC3(CC(C)(C)C3)C(=O)N(C)[C@@H](C3CCCC3)C(=O)N(C)[C@H](C(=O)N(C)C)CC(=O)N(C)[C@@H]([C@@H](C)OC)C(=O)N[C@@H]([C@@H](C)CC)C(=O)N(C3CC3)CC(=O)N(C)[C@H]3C/C=C\CCN(C3=O)[C@@H](Cc3ccc(C)cc3)C(=O)N(C)CC(=O)N[C@@H](CCc3cc(F)c(C(F)(F)F)c(F)c3)C(=O)N2C1 [PP3211] | 9.48 | 7.71 | A (a compound having 10 or more and less than 20 is denoted as A) | A (a compound having 10 or more and less than 20 is denoted as A) |  |  |  |  |  | 
CCC[C@H]1C(=O)N[C@@H](C2CCCC2)C(=O)N(C)CC(=O)N(C)[C@H]2C/C=C\CCN(C2=O)[C@@H](Cc2ccc(C)cc2)C(=O)N(C)CC(=O)N[C@@H](CCc2ccc(C(F)(F)F)c(OC)c2)C(=O)N2CC3(CC3)C[C@H]2C(=O)NC2(CC(C)(C)C2)C(=O)N(C)[C@@H](CC(C)(C)C)C(=O)N(C)[C@H](C(=O)N(C)C)CC(=O)N1C [PP3010] | 9.39 | 7.74 | B (a compound having 3 or more and less than 10 is denoted as B) | B (a compound having 3 or more and less than 10 is denoted as B) |  |  |  |  |  | 
CCO[C@@H]1C[C@H]2C(=O)NC3(CCC3)C(=O)N(C)[C@@H](C3CCCC3)C(=O)N(C)[C@H](C(=O)N3CCOCC3)CC(=O)N(C)[C@@H](CC(C)C)C(=O)N[C@@H]([C@@H](C)CC)C(=O)N(C)CC(=O)N(C)[C@H]3CCCCCN(C3=O)[C@@H](Cc3nccs3)C(=O)N(C)CC(=O)N[C@@H](CCc3cc(F)c(C(F)(F)F)c(F)c3)C(=O)N2C1 [PP0923] |  | 6.35 | B (a compound having 3 or more and less than 10 is denoted as B) | B (a compound having 3 or more and less than 10 is denoted as B) | 8.80 |  |  |  |  | 
CCCOC[C@H]1C(=O)N[C@@H]([C@@H](C)CC)C(=O)N(C)CC(=O)N(C)[C@H]2C/C=C\CCN(C2=O)[C@@H](Cc2ccc(C)cc2)C(=O)N(C)CC(=O)N[C@@H](CCc2cc(F)c(C(F)(F)F)c(F)c2)C(=O)N2C[C@H](C)C[C@H]2C(=O)NC2(CCCC2)C(=O)N(C)[C@@H](C2CCCC2)C(=O)N(C)[C@H](C(=O)N(C)C)CC(=O)N1C [PP2225] |  | 7.38 |  |  |  | 9.70 | A (a compound having 10 or more and less than 20 is denoted as A) | A (a compound having 10 or more and less than 20 is denoted as A) |  | 
CCCN1C(=O)CN(C)C(=O)[C@@H]2CCN2C(=O)[C@H]([C@@H](C)CC)NC(=O)[C@H](CC(C)C)N(C)C(=O)C[C@@H](C(=O)N(C)C)N(C)C(=O)[C@H](C2CCCC2)N(C)C(=O)C2(CCCC2)NC(=O)[C@@H]2CCCN2C(=O)[C@H](CCc2ccc(C(F)(F)F)c(Cl)c2)NC(=O)CN(C)C(=O)[C@@H]1Cc1ccc(C(F)(F)F)cc1 [PP0429] ([NMeL]I[Aze][Sar][NPrPhe(4-CF3)][Sar][hPhe(3-Cl-4-CF3)]P[Ac5c][NMeGly(cPent)][NMeD]-NMe2; lactam N-11) |  | 7.91 |  |  |  | 9.41 | B (a compound having 3 or more and less than 10 is denoted as B) | C (A compound having a KD ratio of 0.1 or more and less than 3 is denoted as C) |  | 
CCO[C@@H]1C[C@H]2C(=O)NC3(CCC3)C(=O)N(C)[C@@H](C3CCCC3)C(=O)N(C)[C@H](C(=O)N(C)C)CC(=O)N(C)[C@@H](CC)C(=O)N[C@@H]([C@@H](C)CC)C(=O)N3CCC[C@H]3C(=O)N(C)[C@H]3C/C=C\CCN(C3=O)[C@@H](Cc3ccc(C(F)(F)F)cc3)C(=O)N(C)CC(=O)N[C@@H](CCc3cc(F)c(C(F)(F)F)c(F)c3)C(=O)N2C1 [PP1056] |  | 7.12 | A (a compound having 10 or more and less than 20 is denoted as A) | A (a compound having 10 or more and less than 20 is denoted as A) | 9.68 |  |  |  |  | 
CC[C@H](C)[C@@H]1NC(=O)[C@H](CC2CCCC2)N(C)C(=O)C[C@@H](C(=O)N(C)C)N(C)C(=O)[C@H](C2CCCC2)N(C)C(=O)C2(CCC2)NC(=O)[C@@H]2C[C@@H](C(F)(F)F)CN2C(=O)[C@H](CCc2cc(F)c(C(F)(F)F)c(F)c2)NC(=O)CN(C)C(=O)[C@H](Cc2ccc(F)cc2)N2CC/C=C\C[C@@H](C2=O)N(C)C(=O)CN(C)C1=O [PP1508] |  | 7.55 |  |  |  | 9.82 |  |  | A (a compound having 10 or more and less than 20 is denoted as A) | A (a compound having 10 or more and less than 20 is denoted as A)
CCC[C@H]1C(=O)N[C@@H](C2CCOCC2)C(=O)N(C)CC(=O)N(C)[C@H]2C/C=C\CCN(C2=O)[C@@H](Cc2ccc(C)cc2)C(=O)N(C)CC(=O)N[C@@H](CCc2ccc(C(F)(F)F)c(Cl)c2)C(=O)N2C[C@H](OCC)C[C@H]2C(=O)NC2(CC(C)(C)C2)C(=O)N(C)[C@@H](C2CCCC2)C(=O)N(C)[C@H](C(=O)N(C)C)CC(=O)N1C [PP3002] | 8.68 | 6.89 | A (a compound having 10 or more and less than 20 is denoted as A) | A (a compound having 10 or more and less than 20 is denoted as A) |  |  |  |  |  | 
CCO[C@@H]1C[C@H]2C(=O)NC3(CC(C)(C)C3)C(=O)N(C)[C@@H](C3CCCC3)C(=O)N(C)[C@H](C(=O)N(C)C)CC(=O)N(C)[C@@H]([C@@H](C)OC)C(=O)N[C@@H]([C@@H](C)CC)C(=O)N(C)CC(=O)N(C)[C@H]3C/C=C\CCN(C3=O)[C@@H](Cc3ccc(C)cc3)C(=O)N(C)CC(=O)N[C@@H](CCc3ccc(C(F)(F)F)c(OC)c3)C(=O)N2C1 [PP3207] | 10.23 | 8.25 | A (a compound having 10 or more and less than 20 is denoted as A) | A (a compound having 10 or more and less than 20 is denoted as A) |  |  |  |  |  | 
CC[C@H](C)[C@@H]1NC(=O)[C@H](CC(C)C)N(C)C(=O)C[C@@H](C(=O)N2CCOCC2)N(C)C(=O)[C@H](C2CCCC2)N(C)C(=O)C2(CCC2)NC(=O)[C@@H]2CC(F)(F)CN2C(=O)[C@H](CCc2ccc(C(F)(F)F)c(Cl)c2)NC(=O)CN(C)C(=O)[C@H](Cc2ccc(F)cc2)N2CCCCC[C@@H](C2=O)N(C)C(=O)CN(C)C1=O [PP0969] |  | 7.87 | B (a compound having 3 or more and less than 10 is denoted as B) | B (a compound having 3 or more and less than 10 is denoted as B) | 9.92 |  |  |  |  | 
CCO[C@@H]1C[C@H]2C(=O)NC3(CC(C)(C)C3)C(=O)N(C)[C@@H](C3CCCC3)C(=O)N(C)[C@H](C(=O)N(C)CC)CC(=O)N(C)[C@@H](CC(C)C)C(=O)N[C@@H]([C@@H](C)CC)C(=O)N(C)CC(=O)N(C)[C@H]3C/C=C\CCN(C3=O)[C@@H](Cc3ccc(C(F)F)cc3)C(=O)N(C)CC(=O)N[C@@H](CCc3ccc(C4CC4)c(OC)c3)C(=O)N2C1 [PP3153] | 8.85 | 7.54 | A (a compound having 10 or more and less than 20 is denoted as A) | A (a compound having 10 or more and less than 20 is denoted as A) |  |  |  |  |  | 
CCO[C@@H]1C[C@H]2C(=O)NC3(CCC3)C(=O)N(C)[C@@H](C3CCCC3)C(=O)N(C)[C@H](C(=O)N(C)C)CC(=O)N(C)[C@@H](CC)C(=O)N[C@@H]([C@@H](C)CC)C(=O)N(C)CC(=O)N(C)[C@H]3CCCCCN(C3=O)[C@@H](Cc3ccc(F)c(C)c3)C(=O)N(C)CC(=O)N[C@@H](CCc3cc(F)c(C(F)(F)F)c(F)c3)C(=O)N2C1 [PP0912] |  | 7.39 | B (a compound having 3 or more and less than 10 is denoted as B) | B (a compound having 3 or more and less than 10 is denoted as B) | 9.49 |  |  |  |  | 
CCO[C@@H]1C[C@H]2C(=O)NC3(CC(C)(C)C3)C(=O)N(C)[C@@H](C3CCCC3)C(=O)N(C)[C@H](C(=O)N(C)CC)CC(=O)N(C)[C@@H](CC(C)C)C(=O)N[C@@H]([C@@H](C)CC)C(=O)N(C)CC(=O)N(C)[C@H]3C/C=C\CCN(C3=O)[C@@H](Cc3ccc(C(F)F)cc3)C(=O)N(C)CC(=O)N[C@@H](CCc3cc(F)c4c(c3)CCC4)C(=O)N2C1 [PP3149] | 9.08 | 7.25 | A (a compound having 10 or more and less than 20 is denoted as A) | A (a compound having 10 or more and less than 20 is denoted as A) |  |  |  |  |  | 
